Experimental data: EP0503079A1, “PYRIDAZINONE-SUBSTITUTED ETHYNYLPHENYL DERIVATIVE AND REMEDY FOR CIRCULATORY ORGAN DISEASE CONTAINING THE SAME AS ACTIVE INGREDIENT” (KAKEN PHARMACEUTICAL CO., LTD., priority 1990, dated 1992)

Columns and labels:
[1] = tested on: Slc-ddy male mice; test: Activity on hypoxia induced in decapitation of mice (gasping time); format: in vivo; design: dose or concentration left out as unconfirmed; conditions: gasping time after decapitation, one hour after oral administration
Experimental: In each group, 3 Slc-ddy male mice (4 weeks) were employed. Each test compound was suspended or dissolved in a 0.5 % methyl cellulose solution. After the concentration was adjusted, the dose became […], the solution was administered orally. One hour after the administration, mice were decapitated and gasping time was measured.
(§1) Inhibition rate was calculated by the following formula. [formula]

[2] = tested on: Slc: ddy male mice; test: Acute toxicity; format: in vivo; conditions: oral administration, death rate after 7 days
Experimental: (§2) In each group, 6 Slc: ddy male mice weighing 25 to 29 g (6 weeks) were employed. Each compound was administered orally thereto and a value of acute toxicity was evaluated with death rate after 7 days.

[3] = tested on: Slc: ddy male mice; test: Activity on stress ulcers (restraint and water immersion); format: in vivo; conditions: length of ulcer in glandular stomach; 30 mg/kg orally; restrained and immersed in water of 23°C for 7 hours
Experimental: In each group, 5 Slc: ddy male mice (6 weeks) were employed. Each test compound was kneaded with Tween-80 followed by adding a 0.5 % solution of gum arabic to prepare 30 mg/10 mℓ solution (solution containing 1.5 % Tween-80 and 0.5 % gum arabic). Then, the preparation was administered orally in a rate of 30 mg/kg. After the administration, the mice were restrained and immersed in a water tank of 23°C for 7 hours. Then, length of the ulcer in the glandular stomach was measured by a stereoscopic microscope (x 10).

[4] = tested on: Aortae abdominalis of male Wister rats; test: Anti-norepinephrine activity on rat abdominal aorta strip preparations (auto-Magnus apparatus); conditions: tension by norepinephrine (10⁻⁷M) regarded as 100
Experimental: Aortae abdominalis of male Wister rats (8-12 weeks) were delivered and cut in spiral-shape to be strip preparations. Each test compounds was disolved in DMSO. Then, the solution was diluted with distilled water and prepared to be desired concentration. Using an auto-Magnus apparatus, as to the vasoconstriction after adding norepinephrine, contractive forces were measured under the existence of the test compounds.

[5] = tested on: platelet aggregation; test: Inhibitory activity on platelet aggregation (turbidimetry); format: cell-based, New Zealand White male rabbits; conditions: for Inhibition rate (%) ADP aggregation: 0.6 µg/mℓ ADP; for Inhibition rate (%) PAF aggregation: 5 x 10⁻⁹M PAF; for Inhibition rate (%) Collagen aggregation: 2 µg/mℓ collagen
Experimental: Blood was exsanguinated from New Zealand White male rabbits weighing from 2.5 to 3.0 kg and subjected to the test. Each test compound was dissolved in ethanol and prepared to be 1 x 10⁻⁵, 1 x 10⁻⁶ or 1 x 10⁻⁷M respectively. Each aggregation response was measured by turbidimetry. Concentration of aggregating agent was 2 µg/mℓ of collagen, 0.6 µg/mℓ of adenosine 5'-diphosphate (ADP) or 5 x 10⁻⁹M of platelet aggregating factor (PAF).
as §1

[6] = Acute toxicity; format: in vivo, mice; conditions: mouse, in vivo; oral administration, death rate after 7 days; read-out: LD₅₀
Experimental: as §2

Row | Compound | Inhibition rate (%) [1] [%] | LD₅₀ [2] [mg/kg] | Inhibition rate (%) [3] [%] | Contractive force ([4]; compound 10⁻⁷ M) | Contractive force ([4]; compound 10⁻⁸ M) | Contractive force ([4]; compound 10⁻⁹ M) | Inhibition rate (%) ADP aggregation ([5]; compound 10⁻⁵ M) [%] | Inhibition rate (%) PAF aggregation ([5]; compound 10⁻⁵ M) [%] | Inhibition rate (%) ADP aggregation ([5]; compound 10⁻⁶ M) [%] | Inhibition rate (%) Collagen aggregation ([5]; compound 10⁻⁶ M) [%] | Inhibition rate (%) ADP aggregation ([5]; compound 10⁻⁷ M) [%] | Inhibition rate (%) Collagen aggregation ([5]; compound 10⁻⁷ M) [%] | LD50 at 168 h [6] [mg/kg]
1 | 2,6-dimethyl-4-(3-ethynylphenyl)-3-methoxycarbonyl-5-{4-(6-oxo-1,4,5,6-tetrahydropyridazinon-3-yl)phenyl}aminocarbonyl-1,4-dihydropyridine [Compound 1] | 28.6 | 1000 | 83.0 | 15.7 | 87.4 | 102.8 | 94 | 64 | 70 | 94 | 21 | 21 | –
2 | 2,6-dimethyl-4-{3-(3-hydroxy-3-methyl)-1-butyn-1-yl)}phenyl-3-methoxycarbonyl-5-{4-(6-oxo-1,4,5,6-tetrahydropyridazinon-3-yl)phenyl}aminocarbonyl-1,4-dihydropyridine [Compound 7] | 19.1 | 800 | 88.8 | 16.3 | 89.2 | 100.3 | 89 | 40 | 73 | 92 | 24 | 25 | –
3 | C#Cc1cccc(C2C(C(=O)Nc3ccc(C4=NNC(=O)CC4CC)cc3)=C(C)NC(N)=C2C(=O)OCCOC)c1 (centres unmarked) [Compound 25, 2-amino-4-(3-ethynylphenyl)-3-methoxyethoxycarbonyl-6-methyl-5-{4-(4-ethyl-6-oxo-1,4,5,6-tetrahydropyridazinon-3-yl)phenyl}aminocarbonyl-1,4-dihydropyridine] | 28.3 | – | 94.3 | 12.1 | 70.9 | 91.5 | 90 | 62 | 69 | 91 | 29 | 30 | 1000
4 | CCOC(=O)C1=C(C)NC(C)=C(C(=O)Nc2ccc(C3=NNC(=O)CC3)cc2)C1c1cc(C#CC(C)(C)O)ccc1OC (centres unmarked) [Compound 17, 2,6-dimethyl-4-{3-(3-hydroxy-3-methyl)-1-butyn-1-yl-6-methoxy}phenyl-3-ethoxycarbonyl-5-{4-(6-oxo-1,4,5,6-tetrahydropyridazinon-3-yl)phenyl}aminocarbonyl-1,4-dihydropyridine] | 25.8 | – | 79.3 | 8.9 | 70.1 | 87.7 | 82 | 49 | 62 | 100 | 18 | 30 | 1000
5 | 2,6-dimethyl-4-{3-(4-hydroxy-1-butyn-1-yl)}phenyl-3-methoxycarbonyl-5-{4-(6-oxo-1,4,5,6-tetrahydropyridazinon-3-yl)phenyl}aminocarbonyl-1,4-dihydropyridine [Compound 6] | 21.5 | 950 | – | 10.8 | 70.2 | 90.5 | 93 | 69 | 68 | 93 | 22 | 22 | –
